Measurements from patent publication US20250009660A1, “LIPID COMPOUND, LIPOSOME, EXOSOME, LIPID NANOPARTICLE, AND DRUG DELIVERY SYSTEM” (NAGASAKI UNIVERSITY, priority 2021, published 2025).
“Also recorded” adds a separate entry of the source.

Columns and labels:
C26 = experiment: Evaluation of cell binding properties / cell uptake of modified liposome; format: cell-based, Mouse; settings: C26 cells; for cell uptake (cell binding properties): rhodamine-labeled liposome modified with the lipid compound (FIG. 13)
From the text: (§1) The liposome was modified with a lipid compound by a post-modification method using NanoAssemblr (nano pharmaceutical production apparatus; manufactured by Precision NanoSystems Inc.).

NIH3T3 = experiment: as above; format: cell-based, Mouse; settings: NIH3T3 cells; for cell uptake (cell binding properties): rhodamine-labeled liposome modified with the lipid compound (FIG. 13)
From the text: as §1

[1] = liposome modified with the lipid, compared with KK-(EK)4 lipid-modified liposome (FIG. 15)

| Substance | cell uptake (cell binding properties) (C26) | cell uptake (cell binding properties) (NIH3T3) | cell binding properties (C26; [1]) | cell binding properties (NIH3T3; [1]) |
| --- | --- | --- | --- | --- |
| K-(EK)4-dipalmitoyllysine [K1] | an increase in cell uptake was observed compared with the unmodified liposome | an increase in cell uptake was observed compared with the unmodified liposome | – | – |
| KK-(EK)4-dipalmitoyllysine [K2] | an increase in cell uptake was observed compared with the unmodified liposome; also recorded: In comparison with K1, the uptake of K2 increased in all of the cells | an increase in cell uptake was observed compared with the unmodified liposome; also recorded: In comparison with K1, the uptake of K2 increased in all of the cells | – | – |
| KKK-(EK)4-dipalmitoyllysine [K3] | an increase in cell uptake was observed compared with the unmodified liposome; also recorded: the uptake of K3 and K4 when compared with K2 was the same | an increase in cell uptake was observed compared with the unmodified liposome; also recorded: the uptake of K3 and K4 when compared with K2 was the same | – | – |
| KKKK-(EK)4-dipalmitoyllysine [K4] | an increase in cell uptake was observed compared with the unmodified liposome; also recorded: the uptake of K3 and K4 when compared with K2 was the same | an increase in cell uptake was observed compared with the unmodified liposome; also recorded: the uptake of K3 and K4 when compared with K2 was the same | – | – |
| RR-(EK)4-dipalmitoyllysine [RR-(EK)4 lipid] | – | – | the same cell binding properties were exhibited | the same cell binding properties were exhibited |
